# Data published in patent US11072588B2, “Barbituric acid derivatives comprising cationic and lipophilic groups” (UNIVERSITETET I TROMSØ—NORGES ARKTISKE UNIVERSITET, priority 2017, dated 2021).
# Assays:
# S. epidermidis = test: Anti-biofilm activity (inhibition of biofilm formation); format: cell-based; details: Staphylococcus epidermidis, read-out: Anti-biofilm IC50
# E. coli 50579417 = test: MIC, multi-resistant clinical isolate; format: cell-based, Escherichia coli
# Procedure: (§1) Working solutions of the test derivatives were prepared with up to 100% DMSO and stored at −20° C. If necessary, the solutions were heated to 40-80° C. before testing to facilitate complete dissolution. Double-distilled water was used in all dilutions prepared. […] A microdilution susceptibility test was used for MIC determination according to Clinical and Laboratory Standards Institute, “Methods for Dilution Antimicrobial Sisceptibility Tests for Bacteria That Graw Aerobically”, Approved Standard M07-A9, edition 2012, with modifications as described by Igumnova et al (Bioorg Med Chem, 2016, 24 (22), 5884-5894).
# (§2) Briefly, the bacterial inoculum was adjusted to approximately 2.5-3×10^4 cells/mL in Mueller-Hinton broth (MHB, Difco Laboratories, USA), and incubated in a ratio of 1:1 with test derivatives in polystyrene 96-well flat-bottom microplates (NUNC, Roskilde, Denmark). Positive growth control (without test derivatives) and negative control (without bacteria) were included. The reference antibiotic was oxytetracycline hydrochloride (Sigma Aldrich, Saint Louis, Mo., USA). The microplates were incubated in an EnVision microplate reader (Perkin-Elmer, Turku, Finland) placed in an incubator set to 35° C. for 48 h. The MIC value was defined as the lowest concentration of derivative resulting in no bacterial growth as determined by OD600 measurement. All derivatives were tested in three parallels.
# (§3) The MIC was determined as explained above with some exceptions; working solutions of test derivatives were prepared from concentrated DMSO stocks stored at room temperature, the density of the bacterial inoculum was increased 40× to 1-1.2×10^6 cells/mL, enterococci were incubated in Brain Heart Infusion broth (BHIB, Difco Laboratories, USA), the microplates were incubated for 24 h, and the derivatives were tested in four parallels.
# E. coli 50676002 = test: MIC, multi-resistant clinical isolate; format: cell-based, Escherichia coli; details: E. coli 50676002
# Procedure: as §1, §2, §3
# E. coli 50857972 = test: MIC, multi-resistant clinical isolate; format: cell-based, Escherichia coli
# Procedure: as §1, §2, §3
# E. coli 50739822 = test: MIC, multi-resistant clinical isolate; format: cell-based, Escherichia coli
# Procedure: as §1, §2, §3
# E. coli 50639799 = test: MIC, multi-resistant clinical isolate; format: cell-based, Escherichia coli
# Procedure: as §1, §2, §3
# P. aeruginosa 50692520 = test: MIC, multi-resistant clinical isolate; format: cell-based, Pseudomonas aeruginosa
# Procedure: as §1, §2, §3
# P. aeruginosa K44-24 = test: MIC, multi-resistant clinical isolate; format: cell-based, Pseudomonas aeruginosa
# Procedure: as §1, §2, §3
# P. aeruginosa K34-73 = test: MIC, multi-resistant clinical isolate; format: cell-based, Pseudomonas aeruginosa; details: P. aeruginosa K34-73
# Procedure: as §1, §2, §3
# [1] = system: Staphylococcus aureus ATCC 9144; test: MIC assay, antibiotic susceptible reference strain; format: cell-based; details: Staphylococcus aureus, ATCC9144, read-out: Antimicrobial activity (MIC) S. a
# How it was run: (§4)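 Broth microdilution followed CLSI M07-A9 with modifications: inoculum ~2.5-3×10^4 cells/mL in Mueller-Hinton broth, mixed 1:1 with test derivative, incubated 48 h at 35 °C. MIC was the lowest concentration giving no growth by OD600, tested in three parallels, with oxytetracycline as reference antibiotic.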
# [2] = system: Corynebacterium glutamicum ATCC 13032; test: MIC assay, antibiotic susceptible reference strain; format: cell-based; details: Corynebacterium glutamicum, ATCC13032, read-out: Antimicrobial activity (MIC) C. g
# How it was run: as §4
# [3] = system: Pseudomonas aeruginosa PA01, DSM 19880 (ATCC 15692); test: MIC assay, antibiotic susceptible reference strain; format: cell-based; details: Pseudomonas aeruginosa, read-out: Antimicrobial activity (MIC) P. a
# How it was run: as §4
# [4] = system: Escherichia coli ATCC 25922; test: MIC assay, antibiotic susceptible reference strain; format: cell-based; details: Escherichia coli, ATCC25922, read-out: Antimicrobial activity (MIC) E. c
# How it was run: as §4
# [5] = system: panel of 30 multi-resistant clinical isolates of Gram-positive and Gram-negative bacteria; test: MIC screening, ranges over the panel of clinical isolates; format: cell-based; details: read-out: MIC values against all the 30 multi-resistant clinical isolates
# Procedure: as §1, §2, §3
# E. faecium 50758899 = test: MIC, multi-resistant clinical isolate; format: cell-based, Enterococcus faecium
# Procedure: as §1, §2, §3
# E. faecium TUH50-22 = test: MIC, multi-resistant clinical isolate; format: cell-based, Enterococcus faecium
# Procedure: as §1, §2, §3
# E. faecium K36-18 = test: MIC, multi-resistant clinical isolate; format: cell-based, Enterococcus faecium
# Procedure: as §1, §2, §3
# E. faecium 50673722 = test: MIC, multi-resistant clinical isolate; format: cell-based, Enterococcus faecium
# Procedure: as §1, §2, §3
# E. faecium 50901530 = test: MIC, multi-resistant clinical isolate; format: cell-based, Enterococcus faecium
# Procedure: as §1, §2, §3
# S. aureus N315 = test: MIC, multi-resistant clinical isolate; format: cell-based, Staphylococcus aureus
# Procedure: as §1, §2, §3
# S. aureus IHT 99040 = test: MIC, multi-resistant clinical isolate; format: cell-based, Staphylococcus aureus
# Procedure: as §1, §2, §3
# S. aureus NCTC 10442 = test: MIC, multi-resistant clinical isolate; format: cell-based, Staphylococcus aureus
# Procedure: as §1, §2, §3
# S. aureus strain WIS = test: MIC, multi-resistant clinical isolate; format: cell-based, Staphylococcus aureus
# Procedure: as §1, §2, §3
# S. aureus strain 85/2082 = test: MIC, multi-resistant clinical isolate; format: cell-based, Staphylococcus aureus
# Procedure: as §1, §2, §3
# [6] = Escherichia coli, read-out: Antimicrobial activity (MIC)
# [7] = Enterococcus faecium, read-out: Antimicrobial activity (MIC)
smiles,measurement,setting,value
"N=C(N)NCCCCN1C(=O)N(CCCCNC(=N)N)C(=O)C(Cc2cc(Br)cc(Br)c2)(Cc2cc(Br)cc(Br)c2)C1=O [8(ii), 1,1′-(4,4′-(5,5-bis(3,5-dibromobenzyl)-2,4,6-trioxodihydropyrimidine-1,3(2H,4H)-diyl)bis(butane-4,1-diyl))diguanidine]",IC50,S. epidermidis,1 mg/L
same,MIC,E. coli 50579417; [6],4 mg/L
same,selectivity index (EC50/MIC),E. coli 50579417; RBC EC50 / MIC,(14)
same,MIC,E. coli 50676002; [6],4 mg/L
same,selectivity index (EC50/MIC),E. coli 50676002; RBC EC50 / MIC,(14)
same,MIC,E. coli 50857972; [6],4 mg/L
same,selectivity index (EC50/MIC),E. coli 50857972; RBC EC50 / MIC,(14)
same,MIC,E. coli 50739822; [6],4 mg/L
same,selectivity index (EC50/MIC),E. coli 50739822; RBC EC50 / MIC,(14)
same,MIC,E. coli 50639799; [6],4 mg/L
same,selectivity index (EC50/MIC),E. coli 50639799; RBC EC50 / MIC,(14)
same,MIC,"P. aeruginosa 50692520; Pseudomonas aeruginosa, read-out: Antimicrobial activity (MIC)",16 mg/L
same,selectivity index (EC50/MIC),P. aeruginosa 50692520; RBC EC50 / MIC,(4)
same,MIC,"P. aeruginosa K44-24; Pseudomonas aeruginosa, K4424, read-out: Antimicrobial activity (MIC)",8 mg/L
same,selectivity index (EC50/MIC),P. aeruginosa K44-24; RBC EC50 / MIC,(7)
same,MIC,"P. aeruginosa K34-73; Pseudomonas aeruginosa, K3473, read-out: Antimicrobial activity (MIC)",8 mg/L
same,selectivity index (EC50/MIC),P. aeruginosa K34-73; RBC EC50 / MIC,(7)
same,MIC,[1],1 mg/L
same,MIC,[2],0.25 mg/L
same,MIC,[3],4 mg/L
same,MIC,[4],2 mg/L
same,MIC,[5],2 to 16 mg/L
same,MIC,E. faecium 50758899; [7],4 mg/L
same,selectivity index (EC50/MIC),E. faecium 50758899; RBC EC50 / MIC,(14)
same,MIC,"E. faecium TUH50-22; Enterococcus faecium, TUH5022, read-out: Antimicrobial activity (MIC)",2 mg/L
same,selectivity index (EC50/MIC),E. faecium TUH50-22; RBC EC50 / MIC,(28)
same,MIC,"E. faecium K36-18; Enterococcus faecium, K3618, read-out: Antimicrobial activity (MIC)",4 mg/L
same,selectivity index (EC50/MIC),"E. faecium K36-18; RBC EC50 / MIC, E. faecium K36-18",(14)
same,MIC,E. faecium 50673722; [7],4 mg/L
same,selectivity index (EC50/MIC),E. faecium 50673722; RBC EC50 / MIC,(14)
same,MIC,E. faecium 50901530; [7],2 mg/L
same,selectivity index (EC50/MIC),E. faecium 50901530; RBC EC50 / MIC,(28)
same,selectivity index (EC50/MIC),"S. aureus N315; RBC EC50 / MIC, S. aureus N315",(28)
same,MIC,"S. aureus N315; Staphylococcus aureus, N315, read-out: Antimicrobial activity (MIC)",2 mg/L
same,selectivity index (EC50/MIC),S. aureus IHT 99040; RBC EC50 / MIC,(28)
same,MIC,"S. aureus IHT 99040; Staphylococcus aureus, IHT99040, read-out: Antimicrobial activity (MIC)",2 mg/L
same,selectivity index (EC50/MIC),"S. aureus NCTC 10442; RBC EC50 / MIC, S. aureus NCTC 10442",(28)
same,MIC,"S. aureus NCTC 10442; Staphylococcus aureus, NCTC10442, read-out: Antimicrobial activity (MIC)",2 mg/L
same,selectivity index (EC50/MIC),"S. aureus strain WIS; RBC EC50 / MIC, S. aureus strain WIS",(28)
same,MIC,"S. aureus strain WIS; Staphylococcus aureus, read-out: Antimicrobial activity (MIC)",2 mg/L
same,selectivity index (EC50/MIC),"S. aureus strain 85/2082; RBC EC50 / MIC, S. aureus strain 85/2082",(28)
same,MIC,"S. aureus strain 85/2082; Staphylococcus aureus, 85/2082, read-out: Antimicrobial activity (MIC)",2 mg/L
